Columns and labels:
[1] = LogP determination; format: physicochemical; conditions: reversed phase HPLC column; method [a]
[2] = tested on: Alternaria brassicae; test: In vivo preventive test on Alternaria brassicae (leaf spot on radish or cabbage); conditions: 144 h, 500 ppm of active ingredient, preventive spray on radish or cabbage, evaluated 6 days after inoculation, read-out: efficacy
Experimental: Example: In Vivo Preventive Test on Alternaria brassicae (Leaf Spot on Radish or Cabbage)
(§1) • Solvent: 5% by volume of Dimethyl sulfoxide • 10% by volume of Acetone • Emulsifier: 1 μl of Tween® 80 per mg of active ingredient
(§2) The active ingredients were made soluble and homogenized in a mixture of Dimethyl sulfoxide/Acetone//Tween®80 and then diluted in water to the desired concentration.
The young plants of radish or cabbage were treated by spraying the active ingredient prepared as described above. Control plants were treated only with an aqueous solution of Acetone/Dimethyl sulfoxide/Tween® 80.
After 24 hours, the plants were contaminated by spraying the leaves with an aqueous suspension of Alternaria brassicae spores. The contaminated radish or cabbage plants were incubated for 6 days at 20° C. and at 100% relative humidity.
The test was evaluated 6 days after the inoculation. 0% means an efficacy which corresponds to that of the control plants while an efficacy of 100% means that no disease was observed.

[3] = tested on: Botrytis cinerea; test: In vivo preventive test on Botrytis cinerea (grey mould); conditions: 500 ppm of active ingredient, preventive spray on gherkin or cabbage, evaluated 4 to 5 days after inoculation, read-out: efficacy
Experimental: Example: In Vivo Preventive Test on Botrytis cinerea (Grey Mould)
as §1, §2
The young plants of gherkin or cabbage were treated by spraying the active ingredient prepared as described above. Control plants were treated only with an aqueous solution of Acetone/Dimethyl sulfoxide/Tween® 80.
After 24 hours, the plants were contaminated by spraying the leaves with an aqueous suspension of Botrytis cinerea spores. The contaminated gherkin plants were incubated for 4 to 5 days at 17° C. and at 90% relative humidity. The contaminated cabbage plants were incubated for 4 to 5 days at 20° C. and at 100% relative humidity.
The test was evaluated 4 to 5 days after the inoculation. 0% means an efficacy which corresponds to that of the control plants while an efficacy of 100% means that no disease was observed.

[4] = tested on: Pyrenophora teres; test: In vivo preventive test on Pyrenophora teres (net blotch on barley); conditions: 240 h, 500 ppm of active ingredient, preventive spray on barley, evaluated 10 days after inoculation, read-out: efficacy
Experimental: Example: In Vivo Preventive Test on Pyrenophora teres (Net Blotch on Barley)
as §1, §2
The young plants of barley were treated by spraying the active ingredient prepared as described above. Control plants were treated only with an aqueous solution of Acetone/Dimethyl sulfoxide/Tween®80.
After 24 hours, the plants were contaminated by spraying the leaves with an aqueous suspension of Pyrenophora teres spores. The contaminated barley plants were incubated for 48 hours at 20° C. and at 100% relative humidity and then for 8 days at 20° C. and at 70-80% relative humidity.
The test was evaluated 10 days after the inoculation. 0% means an efficacy which corresponds to that of the control plants while an efficacy of 100% means that no disease was observed.

[5] = tested on: Septoria tritici; test: In vivo preventive test on Septoria tritici (leaf spot on wheat); conditions: Zymoseptoria tritici, in Triticum aestivum; 500 ppm of active ingredient; preventive spray on wheat; evaluated 19 days after inoculation; read-out: efficacy
Experimental: Example: In Vivo Preventive Test on Septoria tritici (Leaf Spot on Wheat)
as §1, §2
The young plants of wheat were treated by spraying the active ingredient prepared as described above. Control plants were treated only with an aqueous solution of Acetone/Dimethyl sulfoxide/Tween®80.
After 24 hours, the plants were contaminated by spraying the leaves with an aqueous suspension of Septoria tritici spores. The contaminated wheat plants were incubated for 72 hours at 17° C. and at 100% relative humidity and then for 15 days at 20° C. and at 90% relative humidity.
The test was evaluated 19 days after the inoculation. 0% means an efficacy which corresponds to that of the control plants while an efficacy of 100% means that no disease was observed.

[6] = tested on: Sphaerotheca fuliginea; test: In vivo preventive test on Sphaerotheca fuliginea (powdery mildew on cucurbits); conditions: Podosphaera fuliginea, 192 h; 500 ppm of active ingredient; preventive spray on gherkin; evaluated 8 days after inoculation; read-out: efficacy
Experimental: Example: In Vivo Preventive Test on Sphaerotheca fuliginea (Powdery Mildew on Cucurbits)
as §1, §2
The young plants of gherkin were treated by spraying the active ingredient prepared as described above. Control plants were treated only with an aqueous solution of Acetone/Dimethyl sulfoxide/Tween® 80.
After 24 hours, the plants were contaminated by spraying the leaves with an aqueous suspension of Sphaerotheca fuliginea spores. The contaminated gherkin plants were incubated for 8 days at 20° C. and at 70-80% relative humidity.
The test was evaluated 8 days after the inoculation. 0% means an efficacy which corresponds to that of the control plants while an efficacy of 100% means that no disease was observed.

[7] = tested on: Colletotrichum lindemuthianum; test: In vivo preventive test on Colletotrichum lindemuthianum (leaf spot on bean); conditions: 168 h, 500 ppm of active ingredient, preventive spray on bean, evaluated 7 days after inoculation, read-out: efficacy
Experimental: Example: In Vivo Preventive Test on Colletotrichum lindemuthianum (Leaf Spot on Bean)
as §1, §2
The young plants of bean were treated by spraying the active ingredient prepared as described above. Control plants were treated only with an aqueous solution of Acetone/Dimethyl sulfoxide/Tween® 80.
After 24 hours, the plants were contaminated by spraying the leaves with an aqueous suspension of Colletotrichum lindemuthianum spores. The contaminated bean plants were incubated for 24 hours at 20° C. and at 100% relative humidity and then for 6 days at 20° C. and at 90% relative humidity.
The test was evaluated 7 days after the inoculation. 0% means an efficacy which corresponds to that of the control plants while an efficacy of 100% means that no disease was observed.

[8] = tested on: Alternaria alternata; test: Alternaria alternata in vitro cell test; format: cell-based; conditions: 120 h, 20 ppm of active ingredient, liquid culture, 5 days incubation, read-out: efficacy (inhibition of fungal growth)
Experimental: (§3) Example: Alternaria alternata In Vitro Cell Test • Solvent: DMSO • Culture medium: 14.6 g anhydrous D-glucose (VWR), 7.1 g Mycological Peptone (Oxoid), 1.4 g granulated Yeast Extract (Merck), QSP 1 liter • Inoculum: spores suspension Fungicides were solubilized in DMSO and the solution used to prepare the required range of concentrations. The final concentration of DMSO used in the assay was ≤1%. A spore suspension of A. alternata was prepared and diluted to the desired spore density. Fungicides were evaluated for their ability to inhibit spore germination and mycelium growth in liquid culture assay. The compounds were added in the desired concentration to the culture medium with spores. After 5 days incubation, fungi-toxicity of compounds was determined by spectrometric measurement of mycelium growth. Inhibition of fungal growth was determined by comparing the absorbance values in wells containing the fungicides with the absorbance in control wells without fungicides.

[9] = tested on: Colletotrichum lindemuthianum; test: Colletotrichum lindemuthianum in vitro cell test; format: cell-based; conditions: 144 h, 20 ppm of active ingredient, liquid culture, 6 days incubation, read-out: efficacy (inhibition of fungal growth)
Experimental: as §3, with “Example: Colletotrichum lindemuthianum” for “Example: Alternaria alternata”, “of C. lindemuthianum” for “of A. alternata”, “inhibit spores” for “inhibit spore”, “After 6” for “After 5”

[10] = tested on: Septoria tritici; test: Septoria tritici in vitro cell test; format: cell-based; conditions: Zymoseptoria tritici, 168 h; 20 ppm of active ingredient; liquid culture, 7 days incubation; read-out: efficacy (inhibition of fungal growth)
Experimental: as §3, with “Example: Septoria tritici” for “Example: Alternaria alternata”, “g Bacteriological” for “g Mycological”, “(Oxoid), •” for “(Oxoid),”, “Inoculum: spore” for “Inoculum: spores”, “of Septoria tritici” for “of A. alternata”, “After 7” for “After 5”

In the case of `COC(=N)c1cc(Cl)nnc1Oc1cccc(C2CC2)c1` [25-01, methyl 6-chloro-3-(3-cyclopropylphenoxy)pyridazine-4-carboximidate], the chromatographic logP [1] is reported as 3.08.
In the case of `COC(=N)c1cc(Cl)nnc1Oc1cccc(C(F)(F)F)c1` [25-02, methyl 6-chloro-3-[3-(trifluoromethyl)phenoxy]pyridazine-4-carboximidate], the chromatographic logP [1] is reported as 3.
For `Cc1cc(C(N)=NOCC=Cc2ccc3c(ccn3C)c2)c(Oc2cccc(C(F)(F)F)c2)nn1` [30-01, 6-methyl-N′-[3-(1-methylindol-5-yl)allyloxy]-3-[3-(trifluoromethyl)phenoxy]pyridazine-4-carboxamidine], the chromatographic logP [1] was 3.92.
For `Cc1ccc(CC2CON=C(c3cc(C)nnc3Oc3cccc(Cl)c3F)N2)c(Cl)c1` (stereo not drawn) [I-302], the pest or weed control at 500 ppm [2] was 90 to 100%, the pest or weed control at 500 ppm [3] was 90 to 100% and the pest or weed control at 500 ppm [4] was 90 to 100%. It also gave a pest or weed control at 500 ppm [5] of 90 to 100%, a pest or weed control at 500 ppm [6] of 90 to 100% and a pest or weed control at 500 ppm [7] of 90 to 100%. It also gave an inhibition at 20 ppm [8] of 90 to 100%, an inhibition at 20 ppm [9] of 90 to 100% and an inhibition at 20 ppm [10] of 90 to 100%.
